Values quoted from earlier work, collected in patent US7332520B2, “Fused indoles as dipeptidyl peptidase inhibitors for the treatment or prevention of diabetes” (Merck & Co., Inc., priority 2003, dated 2008).

Legend:
hematopoiesis = settings: mouse, cyclophosphamide-induced neutropenia
DP-IV = target: T1, DP-IV (Homo sapiens, UniProt P27487)
T1 construct: GRF is rapidly degraded in plasma to GRF[3-44]
T1 sequence (P27487 39-766 limits assumed): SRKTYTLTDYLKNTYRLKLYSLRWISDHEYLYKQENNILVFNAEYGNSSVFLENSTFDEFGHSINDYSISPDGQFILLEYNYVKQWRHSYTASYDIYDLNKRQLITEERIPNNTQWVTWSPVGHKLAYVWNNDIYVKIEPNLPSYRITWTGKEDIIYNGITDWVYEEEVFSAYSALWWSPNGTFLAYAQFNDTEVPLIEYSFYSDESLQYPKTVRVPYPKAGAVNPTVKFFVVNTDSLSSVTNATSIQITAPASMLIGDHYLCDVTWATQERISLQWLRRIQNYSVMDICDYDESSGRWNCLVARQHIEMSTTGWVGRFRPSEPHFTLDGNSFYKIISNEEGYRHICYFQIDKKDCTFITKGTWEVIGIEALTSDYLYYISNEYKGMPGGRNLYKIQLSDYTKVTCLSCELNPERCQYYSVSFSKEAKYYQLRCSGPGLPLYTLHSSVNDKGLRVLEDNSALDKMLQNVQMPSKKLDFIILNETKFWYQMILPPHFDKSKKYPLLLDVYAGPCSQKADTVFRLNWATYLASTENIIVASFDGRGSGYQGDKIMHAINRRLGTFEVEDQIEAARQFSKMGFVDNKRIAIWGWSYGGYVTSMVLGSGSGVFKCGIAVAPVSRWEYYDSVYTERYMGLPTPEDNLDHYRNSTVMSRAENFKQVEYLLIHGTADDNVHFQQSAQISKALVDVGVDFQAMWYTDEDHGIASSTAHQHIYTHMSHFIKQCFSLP

Row | Compound | hematopoiesis (hematopoiesis) | degradation of GRF in plasma to GRF[3-44] (DP-IV)
1 | CC(C)[C@H](N)C(=O)N1CCC[C@H]1B(O)O [Val-Boro-Pro] | stimulated hematopoiesis | –
2 | CC[C@H](C)[C@H](N)C(=O)N1CCC[C@H]1C(=O)N[C@H](C(=O)O)[C@@H](C)CC [diprotin A] | – | prevented
